Laboratory results taken from ChEMBL document CHEMBL1135798, “Structure-activity relationships of the antimalarial agent artemisinin. 6. The development of predictive in vitro potency models using CoMFA and HQSAR methodologies” (2002).

System: Plasmodium falciparum
Experiment: Antimalarial activity against chloroquine-resistant, mefloquine-sensitive Plasmodium falciparum W2
Format: functional

## CCC1(CC)OO[C@]23CCCCC2[C@@H](C)C(=O)OC3O1 (stereo partly specified)
  Log RA: -0.6

## C[C@@H]1CC[C@@H]2[C@@H](C)CO[C@@H]3C[C@]4(C)CC[C@@H]1[C@]23OO4
  Log RA: -0.24

## CC1(C)C[C@]2(c3ccccc3)CC[C@@](c3ccccc3)(C1)OO2
  Log RA: -2.17

## CCOC(=O)C[C@H](O[C@H]1O[C@@H]2O[C@@]3(C)CC[C@H]4[C@H](C)CC[C@@H]([C@H]1C)[C@@]24OO3)c1ccccc1
  Log RA: 0.9

## CO[C@H]1O[C@@]2(C)CC[C@H]3CCC[C@@H](CCOCc4cc[n+](C)cc4)[C@]31OO2
  Log RA: -0.9

## CCC[C@H]1C(=O)O[C@@H]2O[C@@]3(C)CC[C@H]4[C@H](C)CC[C@@H]1[C@@]24OO3
  Log RA: 1.13

## C[C@@H]1CC[C@H]2CCO[C@@H]3O[C@@]4(CCc5ccccc5)CC[C@@H]1[C@@]23OO4
  Log RA: -1.7

## CCCC[C@H]1CO[C@@H]2O[C@@]3(C)CC[C@H]4[C@H](C)CC[C@@H]1[C@@]24OO3
  Log RA: 1.32

## C[C@@H]1CC[C@H]2CC(=O)N(Cc3ccc(Cl)cc3)[C@@H]3O[C@@]4(C)CC[C@@H]1[C@@]23OO4
  Log RA: -0.16

## CO[C@H]1O[C@@]2(C)CC[C@H]3CCC[C@@H](CCOCc4ccccc4)[C@]31OO2
  Log RA: 0.75

## CO[C@H]1O[C@]2(C)OO[C@]13[C@H](CCO)CCC[C@@H]3CC2(C)C
  Log RA: -1.8

## CO[C@H]1O[C@]2(C)OO[C@]13[C@H](CCO)CCC[C@@H]3C[C@H]2C
  Log RA: -1.8

## C[C@@H]1CC[C@H]2[C@@H](C)C(CCCO)O[C@@H]3O[C@@]4(C)CC[C@@H]1[C@]32OO4 (stereo partly specified)
  Log RA: 0.78

## CCOC(=O)CC[C@@]12CC[C@H]3[C@H](C)CC[C@H]4CC(=O)O[C@H](O1)[C@]43OO2
  Log RA: 0.37

## C[C@@H]1CC[C@H]2CC(=O)O[C@@H]3O[C@@]4(CCCCc5ccccc5)CC[C@@H]1[C@@]23OO4
  Log RA: 0.45

## CC[C@@]12CC[C@H]3[C@H](C)CC[C@H]4CC(=O)O[C@H](O1)[C@]43OO2
  Log RA: 0.05

## CCCC(=O)OCC(CC)(CC)OOC(C)(C)C
  Log RA: -4

## CC1(C)OO[C@]23CCCCC2CC(=O)OC3O1 (stereo partly specified)
  Log RA: -2.237

## C[C@@H]1CCC[C@@]23CO[C@@](C)(CC[C@@H]12)OO3
  Log RA: -0.32

## CC(C)CCN1C(=O)C[C@@H]2CC[C@@H](C)[C@@H]3CC[C@@]4(C)OO[C@@]23[C@H]1O4
  Log RA: -0.04

## CC(C)C[C@@]12CC[C@H]3[C@H](C)CC[C@H]4CC(=O)O[C@H](O1)[C@]43O2
  Log RA: -4

## COC(=O)[C@H](C)COC1O[C@@H]2O[C@@]3(C)CC[C@H]4[C@H](C)CC[C@@H]([C@H]1C)[C@@]24OO3 (stereo partly specified)
  Log RA: 2.25

## COC(=O)[C@@H](C)COC1O[C@@H]2O[C@@]3(C)CC[C@H]4[C@H](C)CC[C@@H]([C@H]1C)[C@@]24OO3 (stereo partly specified)
  Log RA: 1.79

## CCN(CC)C(=O)c1ccc(C(=O)OCC[C@@H]2CCC[C@@H]3CC[C@@]4(C)OO[C@]32[C@@H](OC)O4)cc1
  Log RA: 0.23

## CO[C@H]1O[C@@]2(C)CC[C@H]3CCC[C@@H](CCOC(=O)c4ccc(C(=O)O)cc4)[C@]31OO2
  Log RA: -0.81

## CCCCCC[C@H]1C(=O)O[C@@H]2O[C@@]3(C)CC[C@H]4[C@H](C)CC[C@@H]1[C@@]24OO3
  Log RA: 0.86

## C[C@@H]1CC[C@@H]2[C@]34OO[C@](C)(CC[C@@H]13)O[C@H]4OC(Nc1ccccc1)[C@@]2(C)Br (stereo partly specified)
  Log RA: 0.18

## C[C@@H]1CC[C@H]2[C@@H](C)C(OC(C)(C)C)O[C@@H]3O[C@@]4(C)CC[C@@H]1[C@]32OO4 (stereo partly specified)
  Log RA: 0.92

## C[C@@H]1CC[C@@H]2[C@]34OO[C@](C)(CC[C@@H]13)O[C@H]4OC(Nc1ccccn1)[C@@]2(C)Br (stereo partly specified)
  Log RA: -0.09

## COC(=O)c1ccc(C(=O)OCC[C@@H]2CCC[C@@H]3CC[C@@]4(C)OO[C@]32[C@@H](OC)O4)cc1
  Log RA: 0.27

## CO[C@@H]1O[C@@]2(C)CC[C@H]3CCC[C@@H](CCOC(=O)N(C)C)[C@]31OO2
  Log RA: 0.33

## CCN(CC)C(=O)OCC[C@@H]1CCC[C@@H]2CC[C@@]3(C)OO[C@]21[C@H](OC)O3
  Log RA: 0.65

## C=C1C(O)O[C@@H]2O[C@@]3(C)CC[C@H]4[C@H](C)CC[C@@H]1[C@@]24OO3 (stereo partly specified)
  Log RA: -2.39

## C[C@@H]1CC[C@H]2[C@](C)(O)[C@H](O)O[C@@H]3O[C@@]4(C)CC[C@@H]1[C@]32OO4
  Log RA: -0.89

## C[C@@H]1CC[C@H]2CC(=O)O[C@@H]3O[C@@]4(CCc5ccccc5)CC[C@@H]1[C@@]23O4
  Log RA: -4

## CO[C@H]1O[C@@]2(C)CC[C@H]3CCC[C@@H](CCOS(=O)(=O)c4cccc5c(N(C)C)cccc45)[C@]31OO2
  Log RA: 0.03

## CCO[C@H]1O[C@@H]2O[C@@]3(C)CC[C@H]4C(C=O)CC[C@@H]([C@H]1C)[C@@]24OO3 (stereo partly specified)
  Log RA: 0.21

## C[C@@H]1CC[C@H]2[C@@H](C)C(CC(C)(F)F)O[C@@H]3O[C@@]4(C)CC[C@@H]1[C@]32OO4 (stereo partly specified)
  Log RA: -0.17

## CCO[C@H]1O[C@@H]2O[C@@]3(C)CC[C@H]4C(C)C(=O)C[C@@H]([C@H]1C)[C@@]24OO3 (stereo partly specified)
  Log RA: 0.16

## C[C@@H]1CC[C@H]2[C@@H](C)C(=O)N(c3ccco3)[C@@H]3O[C@@]4(C)CC[C@@H]1[C@@]23OO4
  Log RA: 0.11

## CC[C@@]12CC[C@H]3[C@H](C)CC[C@H]4CC(=O)O[C@H](O1)[C@]43O2
  Log RA: -4

## C[C@@H]1CC[C@H]2[C@@H](C)C(=O)N(Cc3ccccn3)[C@@H]3O[C@@]4(C)CC[C@@H]1[C@@]23OO4
  Log RA: 1.46

## C[C@@H]1CC[C@H]2[C@@H](CCCCc3ccccc3)C(=O)O[C@@H]3O[C@@]4(C)CC[C@@H]1[C@]32O4
  Log RA: -4

## C[C@@H]1CC[C@H]2[C@@H](C)C(=O)N(c3cccs3)[C@@H]3O[C@@]4(C)CC[C@@H]1[C@@]23OO4
  Log RA: 0.17

## C[C@@H]1CC[C@H]2[C@@H](CCc3ccccc3)C(=O)O[C@@H]3O[C@@]4(C)CC[C@@H]1[C@]32OO4
  Log RA: 0.12

## CCC[C@H]1C(=O)O[C@@H]2O[C@@]3(C)CC[C@H]4[C@H](C)CC[C@@H]1[C@@]24O3
  Log RA: -4

## CCOC1C[C@@H]2CC[C@@H](C)[C@@H]3CC[C@@]4(C)OO[C@@]23[C@H](O1)O4 (stereo partly specified)
  Log RA: 0.43

## CCOC1O[C@@H]2O[C@@]3(C)CC[C@H]4[C@H](C)CC[C@H]([C@@]24OO3)[C@]1(C)O (stereo partly specified)
  Log RA: -0.44

## C=CCN1C(=O)[C@H](C)[C@@H]2CC[C@@H](C)[C@@H]3CC[C@@]4(C)OO[C@]32[C@H]1O4
  Log RA: -0.04

## CC(C)CC[C@H]1C(=O)O[C@@H]2O[C@@]3(C)CC[C@H]4[C@H](C)CC[C@@H]1[C@@]24O3
  Log RA: -4

## C[C@@H]1CC[C@H]2[C@@H](C)CO[C@@H]3O[C@@]4(C)CC[C@@H]1[C@]32O4
  Log RA: -4

## C[C@@H]1CC[C@H]2[C@@H](C)C(=O)N(C)[C@@H]3O[C@@]4(C)CC[C@@H]1[C@@]23OO4
  Log RA: 0.43

## CO[C@@H]1O[C@@]2(C)CC[C@H]3CCCC[C@]31OO2
  Log RA: -1.04

## CO[C@]1(C)CC[C@H]2[C@H](C)CCC[C@]2(C=O)OO1
  Log RA: -3.3

## CCO[C@H]1O[C@@H]2O[C@@]3(C)CC[C@H]4C(C)=C(F)C[C@@H]([C@H]1C)[C@@]24OO3
  Log RA: -0.12

## C[C@@H]1CC[C@H]2CC(=O)N(CCc3ccccc3)[C@@H]3O[C@@]4(C)CC[C@@H]1[C@@]23OO4
  Log RA: 0.16

## CCO[C@@H]1O[C@@H]2O[C@@]3(C)CC[C@H]4[C@H](C)CC[C@@H]([C@H]1C)[C@@]24OO3
  Log RA: 0.32

## CO[C@H]1O[C@@]2(C)CC[C@H]3CCC[C@@H](CCOCc4ccc(-c5ccccc5)cc4)[C@]31OO2
  Log RA: 0.32

## C[C@H]1[C@@H](O)O[C@@H]2O[C@@]3(C)CC[C@H]4[C@H](C)CC[C@@H]1[C@@]24O3
  Log RA: -4

## C[C@@H]1CC[C@@H]2[C@]34OO[C@](C)(CC[C@@H]13)O[C@H]4OC(=O)[C@@]21CO1
  Log RA: -2.09

## C[C@@H]1CC[C@H]2[C@@H](C)CO[C@H]3C[C@]4(C)CC[C@@H]1[C@@]32OO4
  Log RA: -2.59

## CO[C@H]1O[C@@]2(C)CC[C@H]3CCCC[C@]31OO2
  Log RA: -0.31

## C[C@@H]1CC[C@H]2CC(=O)O[C@@H]3O[C@@]4(CCc5ccccc5)CC[C@@H]1[C@@]23OO4
  Log RA: -2

## CCCC[C@H]1C(=O)O[C@@H]2O[C@@]3(CCC(=O)OCC)CC[C@H]4[C@H](C)CC[C@@H]1[C@@]24OO3
  Log RA: -1.36

## CC(C)C[C@@]12CC[C@H]3[C@H](C)CC[C@H]4CC(=O)O[C@H](O1)[C@]43OO2
  Log RA: -0.35

## CCCC[C@@]12CC[C@H]3[C@H](C)CC[C@H]4CC(=O)O[C@H](O1)[C@]43OO2
  Log RA: -0.74
